Laboratory results taken from PubChem BioAssay AID330 (DTP/NCI, 2004).
Values joined by “and” are separate entries in the source; they are usually repeats but may differ in a detail not shown here. Equal values may be shown once. Inconclusive results and toxic doses are left out. How the source made its calls: active means survival T/C of 150% or more; inactive means T/C below 125% in these data.

System: P388 leukemia ip, CD2F1 mice, survival T/C
Experiment: NCI In Vivo Anticancer Drug Screen. Data for tumor model P388 Leukemia (intraperitoneal) in CD2F1 (CDF1) mice
Conditions: endpoint: median survival time, higher = longer survival
Method in brief: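 Mice carrying the transplanted tumor received test compound or vehicle. Survival was recorded in each group, and the value is the treated-group measurement divided by that of the vehicle-treated control group.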

[1] = dose: 50.0 mg/kg/injection, schedule: Q01DX005 (ip), vehicle: Klucel (hydroxypropylcellulose) (HPC)
[2] = dose: 100.0 mg/kg/injection, schedule: Q01DX005 (ip), vehicle: Klucel (hydroxypropylcellulose) (HPC)
[3] = dose: 200.0 mg/kg/injection, schedule: Q01DX005 (ip), vehicle: Klucel (hydroxypropylcellulose) (HPC)
[4] = dose: 50.0 mg/kg/injection, schedule: Q01DX009 (ip), vehicle: saline with Tween-80
[5] = dose: 100.0 mg/kg/injection, schedule: Q01DX009 (ip), vehicle: saline with Tween-80
[6] = dose: 200.0 mg/kg/injection, schedule: Q01DX009 (ip), vehicle: saline with Tween-80
[7] = dose: 25.0 mg/kg/injection, schedule: Q01DX005 (ip), vehicle: saline with Tween-80
[8] = dose: 50.0 mg/kg/injection, schedule: Q01DX005 (ip), vehicle: saline with Tween-80
[9] = dose: 400.0 mg/kg/injection, schedule: Q01DX009 (ip), vehicle: saline with Tween-80
[10] = dose: 50.0 mg/kg/injection, schedule: Q04DX002 (ip), vehicle: saline with Tween-80
[11] = dose: 100.0 mg/kg/injection, schedule: Q04DX002 (ip), vehicle: saline with Tween-80
[12] = dose: 50.0 mg/kg/injection, schedule: Q01DX009 (ip), vehicle: Klucel (hydroxypropylcellulose) (HPC)
[13] = dose: 100.0 mg/kg/injection, schedule: Q01DX009 (ip), vehicle: Klucel (hydroxypropylcellulose) (HPC)
[14] = dose: 200.0 mg/kg/injection, schedule: Q01DX009 (ip), vehicle: Klucel (hydroxypropylcellulose) (HPC)
[15] = dose: 100.0 mg/kg/injection, schedule: Q01DX001 (ip), vehicle: saline with Tween-80
[16] = dose: 200.0 mg/kg/injection, schedule: Q01DX001 (ip), vehicle: saline with Tween-80
[17] = dose: 400.0 mg/kg/injection, schedule: Q01DX001 (ip), vehicle: saline with Tween-80

Measured: T/C

CC1(C)N=C(N)N=C(N)N1c1cccc(CC(=O)Nc2ccccc2)c1
inactive: dose: 12.5 mg/kg/injection, schedule: Q01DX009 (ip), vehicle: saline sonified 95 % of control | dose: 12.5 mg/kg/injection, schedule: Q04DX003 (ip), vehicle: saline with Tween-80 109 % of control | dose: 25.0 mg/kg/injection, schedule: Q01DX009 (ip), vehicle: saline sonified 95 % of control | dose: 25.0 mg/kg/injection, schedule: Q04DX003 (ip), vehicle: saline with Tween-80 104 % of control | dose: 50.0 mg/kg/injection, schedule: Q01DX009 (ip), vehicle: saline sonified 90 % of control | dose: 50.0 mg/kg/injection, schedule: Q04DX003 (ip), vehicle: saline with Tween-80 109 % of control

CC1(C)Cc2c([nH]c3ccccc3c2=O)-c2ccccc21
inactive: [1] 96 % of control | [2] 100 % of control | [3] 103 % of control

COc1ccc(C[C@H]2c3c(cc4c(c3OC)OCO4)CCN2C)c(CO)c1OC
inactive: dose: 9.38 mg/kg/injection, schedule: Q01DX005 (ip), vehicle: Klucel (hydroxypropylcellulose) (HPC) 100 % of control | dose: 18.75 mg/kg/injection, schedule: Q01DX005 (ip), vehicle: Klucel (hydroxypropylcellulose) (HPC) 98 % of control | dose: 37.5 mg/kg/injection, schedule: Q01DX005 (ip), vehicle: Klucel (hydroxypropylcellulose) (HPC) 94 % of control | dose: 75.0 mg/kg/injection, schedule: Q01DX005 (ip), vehicle: Klucel (hydroxypropylcellulose) (HPC) 99 % of control

COc1cc(C)c(O)c(C/C=C(\C)CC2=C[C@@]3(C)CCC[C@@]3(C)[C@]3(CC(O)C(C)(C)O3)O2)c1 (stereo not given in full)
inactive: dose: 20.0 mg/kg/injection, schedule: Q01DX005 (ip), vehicle: saline with Tween-80 98 % of control | dose: 40.0 mg/kg/injection, schedule: Q01DX005 (ip), vehicle: saline with Tween-80 100 % of control | dose: 80.0 mg/kg/injection, schedule: Q01DX005 (ip), vehicle: saline with Tween-80 119 % of control

O=C(CC(=NCCCN=C(CC(=O)c1ccccc1)c1ccccc1)c1ccccc1)c1ccccc1
inactive: [4] 96 % of control | [5] 100 % of control | [6] 100 % of control

CCN(Cc1cccc(S(=O)(=O)O)c1)c1ccc(C(=C2C=CC(=[N+](CC)Cc3cccc(S(=O)(=O)O)c3)C=C2)c2ccccc2)cc1
inactive: dose: 50.0 mg/kg/injection, schedule: Q01DX005 (ip), vehicle: saline 107 % of control | dose: 100.0 mg/kg/injection, schedule: Q01DX005 (ip), vehicle: saline 110 % of control | dose: 200.0 mg/kg/injection, schedule: Q01DX005 (ip), vehicle: saline 115 % of control

Clc1cc(Cl)nc(N2CCCCC2)n1
inactive: dose: 25.0 mg/kg/injection, schedule: Q04DX003 (ip), vehicle: Klucel (hydroxypropylcellulose) (HPC) 105 % of control | dose: 50.0 mg/kg/injection, schedule: Q04DX003 (ip), vehicle: Klucel (hydroxypropylcellulose) (HPC) 102 % of control | dose: 100.0 mg/kg/injection, schedule: Q04DX003 (ip), vehicle: Klucel (hydroxypropylcellulose) (HPC) 100 % of control | dose: 200.0 mg/kg/injection, schedule: Q04DX003 (ip), vehicle: Klucel (hydroxypropylcellulose) (HPC) 105 % of control

O=[N+]([O-])c1ccc(C2=C[P+](c3ccccc3)(c3ccccc3)c3ccccc3O2)cc1
inactive: dose: 0.78 mg/kg/injection, schedule: Q01DX005 (ip), vehicle: Klucel (hydroxypropylcellulose) (HPC) 106 % of control | dose: 1.56 mg/kg/injection, schedule: Q01DX005 (ip), vehicle: Klucel (hydroxypropylcellulose) (HPC) 115 % of control | dose: 3.12 mg/kg/injection, schedule: Q01DX005 (ip), vehicle: Klucel (hydroxypropylcellulose) (HPC) 117 % of control | dose: 6.25 mg/kg/injection, schedule: Q01DX005 (ip), vehicle: Klucel (hydroxypropylcellulose) (HPC) 112 % of control

Cc1cccc2c(OCC3CO3)cc(=O)[nH]c12 (stereo not given)
inactive: [7] 110 % of control | [8] 114 % of control and 118 % of control

C=CCNc1ncnc2sc(SC)nc12
inactive: dose: 100.0 mg/kg/injection, schedule: Q04DX002 (ip), vehicle: distilled water + alcohol 100 % of control | dose: 200.0 mg/kg/injection, schedule: Q04DX002 (ip), vehicle: distilled water + alcohol 104 % of control | dose: 400.0 mg/kg/injection, schedule: Q04DX002 (ip), vehicle: distilled water + alcohol 99 % of control

Cc1ccc(NC(=S)NCCc2ccccn2)cc1C
inactive: dose: 12.5 mg/kg/injection, schedule: Q01DX009 (ip), vehicle: saline with Tween-80 94 % of control | dose: 25.0 mg/kg/injection, schedule: Q01DX009 (ip), vehicle: saline with Tween-80 94 % of control | [4] 93 % of control | [5] 99 % of control and 92 % of control | [6] 100 % of control | [9] 105 % of control

CC(C)(C)N(O)c1cccc(P(c2ccccc2)c2ccccc2)c1
inactive: [10] 91 % of control | [11] 94 % of control | dose: 200.0 mg/kg/injection, schedule: Q04DX002 (ip), vehicle: saline with Tween-80 100 % of control

O=C1c2ccccc2C(=O)N1Cc1ccccc1Br
inactive: [1] 103 % of control | [2] 101 % of control | [3] 100 % of control

CCOC(=O)c1ccc(N(CC)CC)cc1
inactive: [5] 100 % of control | [6] 104 % of control | [9] 100 % of control

CN1CCN(c2ccncc2S(=O)(=O)N2CCCC2)CC1
inactive: dose: 50.0 mg/kg/injection, schedule: Q01DX009 (ip), vehicle: saline 107 % of control | dose: 100.0 mg/kg/injection, schedule: Q01DX009 (ip), vehicle: saline 104 % of control

Clc1ccc(-c2csc(NCC3CCCO3)n2)cc1 (stereo not given)
inactive: [12] 100 % of control | [13] 108 % of control | [14] 100 % of control

O=C1CN(c2ccccc2)C(=O)CN1/N=C/c1ccc(O)c(O)c1
inactive: [8] 93 % of control | dose: 100.0 mg/kg/injection, schedule: Q01DX005 (ip), vehicle: saline with Tween-80 100 % of control | dose: 200.0 mg/kg/injection, schedule: Q01DX005 (ip), vehicle: saline with Tween-80 101 % of control

N#Cc1sc(SCC(=O)O)c(-[n+]2ccccc2)c1N
inactive: dose: 25.0 mg/kg/injection, schedule: Q04DX002 (ip), vehicle: saline with Tween-80 95 % of control | [10] 104 % of control | [11] 99 % of control

O=NC1C2CCC(C2)C1N=O.[Co].[c-]1[c-][c-][cH-][c-]1 (stereo not given)
inactive: dose: 12.5 mg/kg/injection, schedule: Q01DX005 (ip), vehicle: saline with Tween-80 96 % of control | [7] 98 % of control | [8] 98 % of control and 92 % of control

COc1ccccc1Nc1n[nH]c(=S)s1
inactive: [12] 121 % of control | [13] 105 % of control | [14] 95 % of control

O=C(O)c1cccc(C(=O)O)c1S(=O)(=O)c1ccccc1
inactive: [15] 99 % of control | [16] 98 % of control | [17] 95 % of control

O=C1Cc2ccccc2C(=O)N1NCCO
inactive: [15] 103 % of control | [16] 102 % of control | [17] 94 % of control

CCOC(=O)c1c(Cl)c(CC)c(N=[N+]=[N-])n2c1nc1ccccc12
inactive: dose: 60.0 mg/kg/injection, schedule: Q01DX005 (ip), vehicle: saline with Tween-80 101 % of control | dose: 120.0 mg/kg/injection, schedule: Q01DX005 (ip), vehicle: saline with Tween-80 101 % of control
